Data reported in US8952018B2, “Pharmaceutical combination of MEK inhibitor and B-Raf inhibitors” (GlaxoSmithKline LLC, priority 2009, dated 2015).
Where two headings read alike, the source gives them in different places.

How the values were obtained:
A375PF11 = test: Cell growth inhibition assay (Cell Titer Glo) and combination data analysis; assay type: cell-based; conditions: Homo sapiens, A375P-F11, 72 h, Melanoma, BRAF_V600E, 3 days, mean ± std
Protocol: (§6) Cell growth inhibition assay and combination data analysis—All cells were cultured for a minimum of 72 hours prior to cell plating. Cells were assayed in a 96-well tissue culture plate (NUNC 136102) of RPMI medium containing 10% FBS for all cells at 1,000 cells per well. Approximately 24 hours after plating, cells were exposed to ten, three-fold serial dilutions of compound or the combination of the two agents at a constant molar to molar ratio of 1:10 Compound A (DMSO solvate) to Compound B (free form) in RPMI media containing 10% FBS. Concentrations tested for Compound A were 1 μM-0.05 nM and for Compound B were 10 μM-0.5 nM. Cells were incubated in the presence of compounds for 3 days. ATP levels were determined by adding Cell Titer Glo® (Promega) according to the manufacturer's protocol. Briefly, Cell Titer Glo® was added each plate, incubated for 30 minutes then luminescent signal was read on the SpectraMax L plate reader with a 0.5 sec integration time.

12R5-3 = test: as above; assay type: cell-based; conditions: Homo sapiens, A375P-F11, 72 h, Melanoma, resistant clone of A375 PF11, BRAF_V600E, 3 days
Protocol: as §6

SW837 = test: as above; assay type: cell-based; conditions: Homo sapiens, 72 h, Colon, KRAS_G12C, 3 days
SW1417 = test: as above; assay type: cell-based; conditions: Homo sapiens, 72 h, Colon, BRAF_V600E, 3 days, mean ± std
Description: (§7) EOHSA values are defined as increases in improvement (here, in ‘percentage points’ (ppts) difference) produced by the combination over the best single agent at its component dose level for the combination. For single agent and combination treatments, cells were exposed to compounds at a fixed-dose-ratio, and dose response curves were fit to the experimental data and analyzed using regression models. […]

NCI-H508 = test: as above; assay type: cell-based; conditions: Homo sapiens, 72 h, Colon, BRAF_G596R, 3 days
16R6-3 = test: as above; assay type: cell-based; conditions: Homo sapiens, A375P-F11, 72 h, Melanoma, resistant clone of A375 PF11, BRAF_V600E, 3 days
Protocol: (§8) Cell growth inhibition assay and combination data analysis—All cells were cultured for a minimum of 72 hours prior to cell plating. Cells were assayed in a 96-well tissue culture plate (NUNC 136102) of RPMI medium containing 10% FBS for all cells at 1,000 cells per well. Approximately 24 hours after plating, cells were exposed to ten, three-fold serial dilutions of compound or the combination of the two agents at a constant molar to molar ratio of 1:10 Compound A (DMSO solvate) to Compound B (free form) in RPMI media containing 10% FBS. Concentrations tested for Compound A were 1 μM-0.05 nM and for Compound B were 10 μM-0.5 nM. […] ATP levels were determined by adding Cell Titer Glo® (Promega) according to the manufacturer's protocol. Briefly, Cell Titer Glo® was added each plate, incubated for 30 minutes then luminescent signal was read on the SpectraMax L plate reader with a 0.5 sec integration time.

RKO = test: as above; assay type: cell-based; conditions: Homo sapiens, 72 h, Colon, BRAF_V600E, 3 days, mean ± std
Description: as §7

DLD1 = test: as above; assay type: cell-based; conditions: Homo sapiens, DLD-1, 72 h, Colon, KRAS_G13D, 3 days
Description: as §7

SW1463 = test: as above; assay type: cell-based; conditions: Homo sapiens, 72 h, Colon, KRAS_G12C, 3 days
Protocol: as §6

[1] = tested on: melanoma lines 16R5-2, 16R6-4 and 12R5-1; test: Cell growth inhibition assay, summary of Table 3; assay type: cell-based, human; conditions: 16R5-2, 16R6-4, 12R5-1; compound alone
Protocol: Cell lines and growth conditions—Human colon tumor lines, Colo-205, DLD-1, HCT-8, HT-29, LS-1034, NCI-H508, RKO, SW1417, SW1463, SW480 and SW837, and human melanoma line A375 were from ATCC. A375 PF11 was derived from A375.
Cell growth inhibition assay and combination data analysis—All cells were cultured for a minimum of 72 hours prior to cell plating. Cells were assayed in a 96-well tissue culture plate (NUNC 136102) of RPMI medium containing 10% FBS for all cells at 1,000 cells per well. […] ATP levels were determined by adding Cell Titer Glo® (Promega) according to the manufacturer's protocol. Briefly, Cell Titer Glo® was added each plate, incubated for 30 minutes then luminescent signal was read on the SpectraMax L plate reader with a 0.5 sec integration time.
Inhibition of cell growth was estimated after treatment with compound or combination of compounds for three days and comparing the signal to cells treated with vehicle (DMSO). Cell growth was calculated relative to vehicle (DMSO) treated control wells. […]
The combination effects on the response scale were quantified by Excess Over Highest Single Agent (EOHSA) based on the concept of nonlinear blending as described in detail by Peterson and Novick (2007) and Peterson (2010) [(2;3) [Peterson and Novick, 2007; Peterson, 2010]. […]

12R8-1 = test: Cell growth inhibition assay (Cell Titer Glo) and combination data analysis; assay type: cell-based; conditions: Homo sapiens, A375P-F11, 72 h, Melanoma, resistant clone of A375 PF11, BRAF_V600E, 3 days
Protocol: as §6

Colo-205 = test: as above; assay type: cell-based; conditions: Homo sapiens, 72 h, Colon, BRAF_V600E, 3 days, mean ± std
Description: as §7

HCT-8 = test: as above; assay type: cell-based; conditions: Homo sapiens, 72 h, Colon, KRAS_G13D, 3 days
12R5-1 = test: as above; assay type: cell-based; conditions: Homo sapiens, A375P-F11, 72 h, Melanoma, resistant clone of A375 PF11, BRAF_V600E, 3 days
Protocol: as §8

HT-29 = test: as above; assay type: cell-based; conditions: Homo sapiens, 72 h, Colon, BRAF_V600E, 3 days, mean ± std
Description: as §7

[2] = tested on: four colon cell lines with BRAF V600E mutation; test: Cell growth inhibition assay, summary of Table 3; assay type: cell-based; conditions: Homo sapiens, read-out: IC50 values, single agent
Protocol: (§1) A375 PF11 was derived from A375.
(§2) Cell growth inhibition assay and combination data analysis—All cells were cultured for a minimum of 72 hours prior to cell plating. […] Cells were incubated in the presence of compounds for 3 days. ATP levels were determined by adding Cell Titer Glo® (Promega) according to the manufacturer's protocol. Briefly, Cell Titer Glo® was added each plate, incubated for 30 minutes then luminescent signal was read on the SpectraMax L plate reader with a 0.5 sec integration time.
(§3) Inhibition of cell growth was estimated after treatment with compound or combination of compounds for three days and comparing the signal to cells treated with vehicle (DMSO). Cell growth was calculated relative to vehicle (DMSO) treated control wells.
(§4) In general, a CI value <0.9, between 0.9 and 1.1, or >1.1 indicates synergy, additivity and antagonism, respectively. In general, the smaller the Cl number, the greater is the strength of synergy.
(§5) EOHSA values are defined as increases in improvement (here, in ‘percentage points’ (ppts) difference) produced by the combination over the best single agent at its component dose level for the combination. For single agent and combination treatments, cells were exposed to compounds at a fixed-dose-ratio, and dose response curves were fit to the experimental data and analyzed using regression models. At specified total dose levels of IC50 along the dose response curve, the dose combination (corresponding to IC50) was determined for making EOHSA statistical inferences.

[3] = tested on: seven colon lines without BRAF V600E mutation (either with BRAF G596R or KRAS mutations); test: Cell growth inhibition assay, summary of Table 3; assay type: cell-based; conditions: Homo sapiens
Protocol: as §1, §2, §3, §4, §5

SW480 = test: Cell growth inhibition assay (Cell Titer Glo) and combination data analysis; assay type: cell-based; conditions: Homo sapiens, 72 h, Colon, KRAS_G12C, 3 days
12R8-3 = test: as above; assay type: cell-based; conditions: Homo sapiens, A375P-F11, 72 h, Melanoma, resistant clone of A375 PF11, BRAF_V600E, 3 days
Protocol: as §6

16R6-4 = test: as above; assay type: cell-based; conditions: Homo sapiens, A375P-F11, 72 h, Melanoma, resistant clone of A375 PF11, BRAF_V600E, 3 days
Protocol: as §8

[4] = tested on: melanoma lines 12R8-3, 12R8-1, 12R5-3, and 16R6-3; test: Cell growth inhibition assay, summary of Table 3; assay type: cell-based; conditions: Homo sapiens; range over 12R8-3, 12R8-1, 12R5-3, 16R6-3; read-out: IC50, single agent
16R5-2 = test: Cell growth inhibition assay (Cell Titer Glo) and combination data analysis; assay type: cell-based; conditions: Homo sapiens, A375P-F11, 72 h, Melanoma, resistant clone of A375 PF11, BRAF_V600E, 3 days
Protocol: as §8

LS-1034 = test: as above; assay type: cell-based; conditions: Homo sapiens, 72 h, Colon, KRAS_A146T, 3 days
[5] = read-out: IC50 Single Agent Compound A
[6] = mean ± std, read-out: IC50 Single Agent Compound A
[7] = read-out: IC50 Single Agent Compound B

SMILES: CC(=O)Nc1cccc(-n2c(=O)n(C3CC3)c(=O)c3c(Nc4ccc(I)cc4F)n(C)c(=O)c(C)c32)c1 [Compound A, N-{3-[3-cyclopropyl-5-(2-fluoro-4-iodo-phenylamino)6,8-dimethyl-2,4,7-trioxo-3,4,6,7-tetrahydro-2H-pyrido[4,3-d]pyrimidin-1-yl]phenyl}acetamide]
- IC50 (A375PF11; [5]): 1 nM
- IC50 (12R5-3; [6]): 92 ± 52 nM
- IC50 (SW837; [6]): 93 ± 63 nM
- IC50 (SW1417; [5]): 3 ± 2 nM
- IC50 (NCI-H508; [6]): 10 ± 5 nM
- IC50 (16R6-3; [6]): 109 ± 22 nM
- IC50 (RKO; [5]): 25 ± 7 nM
- IC50 (DLD1; [6]): 557 ± 393 nM
- IC50 (SW1463; [6]): 5 ± 4 nM
- sensitivity to single agent [1]: resistant or insensitive
- IC50 (12R8-1; [6]): 58 ± 30 nM
- IC50 (Colo-205; [5]): 1 nM
- IC50 (HCT-8; [6]): 50 ± 11 nM
- IC50 (12R5-1; [5]): > 1000 nM
- IC50 (HT-29; [5]): 1 ± 1 nM
- IC50 ([2]; range over the four colon cell lines with BRAF V600E mutation): 1 to 25 nM
- IC50 ([3]; six out of the seven colon lines without BRAF V600E mutation, read-out: IC50s, single agent): 1 to 93 nM
- IC50 (SW480; [6]): 42 ± 3 nM
- IC50 (12R8-3; [6]): 59 ± 37 nM
- IC50 (16R6-4; [5]): > 1000 nM
- IC50 [4]: 58 to 109 nM
- IC50 (16R5-2; [5]): > 1000 nM
- IC50 (LS-1034; [6]): 11 ± 7 nM

SMILES: CC(C)(C)c1nc(-c2cccc(NS(=O)(=O)c3c(F)cccc3F)c2F)c(-c2ccnc(N)n2)s1 [Compound B, N-{3-[5-(2-Amino-4-pyrimidinyl)-2-(1,1-dimethylethyl)-1,3-thiazol-4-yl]-2-fluorophenyl}-2,6-difluorobenzenesulfonamide]
- IC50 (A375PF11; [7]): 12 nM
- IC50 (12R5-3; [7]): > 10000 nM
- IC50 (SW837; [7]): > 10000 nM
- IC50 (SW1417; [7]): 203 ± 15 nM
- IC50 (NCI-H508; [7]): > 10000 nM
- IC50 (16R6-3; [7]): > 10000 nM
- IC50 (RKO; [7]): 5650 ± 3900 nM
- IC50 (DLD1; [7]): > 10000 nM
- IC50 (SW1463; [7]): > 10000 nM
- sensitivity to single agent [1]: resistant or insensitive
- IC50 (12R8-1; [7]): > 10000 nM
- IC50 (Colo-205; [7]): 18 ± 13 nM
- IC50 (HCT-8; [7]): > 10000 nM
- IC50 (12R5-1; [7]): > 10000 nM
- IC50 (HT-29; [7]): 22 ± 22 nM
- IC50 [2]: 18 to 5650 nM
- IC50 ([3]; read-out: IC50, single agent): > 10000 nM
- IC50 (SW480; [7]): > 10000 nM
- IC50 (12R8-3; [7]): > 10000 nM
- IC50 (16R6-4; [7]): > 10000 nM
- IC50 [4]: > 10000 nM
- IC50 (16R5-2; [7]): > 10000 nM
- IC50 (LS-1034; [7]): > 10000 nM
